Measured values: ChEMBL document CHEMBL3351875, “Synthesis of Deuterated Benzopyran Derivatives as Selective COX-2 Inhibitors with Improved Pharmacokinetic Properties” (ACS Med Chem Lett, 2014)

What was measured:
Rattus norvegicus [1] = test: Antiinflammatory activity in orally dosed Sprague-Dawley rat model of carrageenan-induced foot paw edema assessed as reduction in edema by plethysmometry; assay type: functional, organism-based
Rattus norvegicus [2] = test: (§1) AUC (0 to infinity) in Sprague-Dawley rat at 5 mg/kg, iv measured during 1 to 24 hrs by LC-MS method; assay type: ADME, organism-based, Plasma; parameters: time infinity, dose 5 mg/kg, route intravenous; details: in vivo
[3] = molecular target: T1, Prostaglandin G/H synthase 2 (Homo sapiens, UniProt P35354); test: Inhibition of human recombinant COX2 pre-incubated for 15 mins before fluorometric substrate addition by fluorescence based assay
T1 sequence (P35354 whole entry): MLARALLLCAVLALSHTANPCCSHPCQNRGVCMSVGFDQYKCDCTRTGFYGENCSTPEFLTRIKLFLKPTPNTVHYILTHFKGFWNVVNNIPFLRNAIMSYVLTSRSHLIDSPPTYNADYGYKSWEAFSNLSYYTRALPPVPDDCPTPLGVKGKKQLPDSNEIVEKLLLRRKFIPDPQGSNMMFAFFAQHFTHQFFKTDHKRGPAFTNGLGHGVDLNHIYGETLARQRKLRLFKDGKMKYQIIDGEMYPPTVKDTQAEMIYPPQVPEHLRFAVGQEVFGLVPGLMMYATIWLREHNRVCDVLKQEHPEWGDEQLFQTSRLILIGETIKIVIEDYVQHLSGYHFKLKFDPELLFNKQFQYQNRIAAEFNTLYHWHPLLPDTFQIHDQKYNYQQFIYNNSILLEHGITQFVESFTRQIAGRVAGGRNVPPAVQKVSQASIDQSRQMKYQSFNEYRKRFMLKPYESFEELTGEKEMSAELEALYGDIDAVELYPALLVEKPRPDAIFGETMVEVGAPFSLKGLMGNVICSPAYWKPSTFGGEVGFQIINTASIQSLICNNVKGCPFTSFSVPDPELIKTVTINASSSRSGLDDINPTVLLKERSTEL

Rattus norvegicus [4] = test: AUC (0 to infinity) in Sprague-Dawley rat at 10 mg/kg, po measured during 1 to 24 hrs by LC-MS method; assay type: ADME, organism-based, Plasma; parameters: time infinity, dose 10 mg/kg, route oral; details: in vivo
Rattus norvegicus [5] = test: Antiarthritic activity in Lewis rat model of adjuvant-induced arthritis administrated by oral gavage once daily; assay type: functional
[6] = Volume of distribution in Sprague-Dawley rat at 5 mg/kg, iv measured during 1 to 24 hrs by LC-MS method; assay type: ADME, organism-based; parameters: dose 5 mg/kg, route intravenous; details: in vivo
[7] = Apparent oral clearance in Sprague-Dawley rat at 5 mg/kg, iv measured during 1 to 24 hrs by LC-MS method; assay type: ADME, organism-based; parameters: dose 5 mg/kg, route oral; details: in vivo
Rattus norvegicus [8] = test: Half life in Sprague-Dawley rat at 5 mg/kg, iv measured during 1 to 24 hrs by LC-MS method; assay type: ADME, organism-based; parameters: dose 5 mg/kg, route intravenous; details: in vivo
Rattus norvegicus [9] = test: Antiinflammatory activity in orally dosed Sprague-Dawley rat model of carrageenan-induced air pouch inflammation assessed as reduction in PGE2 level by ELISA method; assay type: functional, organism-based
Rattus norvegicus [10] = test: Volume of distribution in Sprague-Dawley rat at 10 mg/kg, po measured during 1 to 24 hrs by LC-MS method; assay type: ADME, organism-based; parameters: dose 10 mg/kg, route oral; details: in vivo
[11] = Oral bioavailability in Sprague-Dawley rat at 10 mg/kg measured during 1 to 24 hrs by LC-MS method; assay type: ADME, organism-based; details: Sprague-Dawley, in vivo
[12] = Cmax in Sprague-Dawley rat at 5 mg/kg, iv measured during 1 to 24 hrs by LC-MS method; assay type: ADME, organism-based; parameters: dose 5 mg/kg, route intravenous; details: in vivo
Rattus norvegicus [13] = test: Antinociceptive activity in orally dosed Sprague-Dawley rat model of carrageenan-induced foot paw hyperalgesia assessed as paw withdrawal latency; assay type: functional, organism-based
[14] = Apparent oral clearance in Sprague-Dawley rat at 10 mg/kg, po measured during 1 to 24 hrs by LC-MS method; assay type: ADME, organism-based; parameters: dose 10 mg/kg, route oral; details: Sprague-Dawley, in vivo
[15] = Oral bioavailability in Sprague-Dawley rat at 25 mg/kg measured during 1 to 24 hrs by LC-MS method; assay type: ADME, organism-based; details: in vivo
[16] = as §1; assay type: ADME, organism-based, Plasma; parameters: time infinity, dose 5 mg/kg, route intravenous; details: Sprague-Dawley, plasma
Rattus norvegicus [17] = test: Volume of distribution in Sprague-Dawley rat at 25 mg/kg, po measured during 1 to 24 hrs by LC-MS method; assay type: ADME, organism-based; parameters: dose 25 mg/kg, route oral; details: in vivo
[18] = Apparent oral clearance in Sprague-Dawley rat at 25 mg/kg, po measured during 1 to 24 hrs by LC-MS method; assay type: ADME, organism-based; parameters: dose 25 mg/kg, route oral; details: in vivo
[19] = Half life in Sprague-Dawley rat at 25 mg/kg, po measured during 1 to 24 hrs by LC-MS method; assay type: ADME, organism-based; parameters: dose 25 mg/kg, route oral; details: in vivo
[20] = Tmax in Sprague-Dawley rat at 25 mg/kg, po measured during 1 to 24 hrs by LC-MS method; assay type: ADME, organism-based; parameters: dose 25 mg/kg, route oral; details: in vivo
[21] = AUC (0 to infinity) in Sprague-Dawley rat at 25 mg/kg, po measured during 1 to 24 hrs by LC-MS method; assay type: ADME, organism-based; parameters: time infinity, dose 25 mg/kg, route oral; details: plasma
[22] = Cmax in Sprague-Dawley rat at 25 mg/kg, po measured during 1 to 24 hrs by LC-MS method; assay type: ADME, organism-based; parameters: dose 25 mg/kg, route oral; details: in vivo
[23] = molecular target: Prostaglandin G/H synthase 1 (Homo sapiens, UniProt P23219); test: Inhibition of human recombinant COX1 pre-incubated for 15 mins before fluorometric substrate addition by fluorescence based assay
[24] = Cmax in Sprague-Dawley rat at 2.5 mg/kg, po measured during 1 to 24 hrs by LC-MS method; assay type: ADME, organism-based; parameters: dose 2.5 mg/kg, route oral; details: in vivo
[25] = Oral bioavailability in Sprague-Dawley rat at 2.5 mg/kg measured during 1 to 24 hrs by LC-MS method; assay type: ADME, organism-based; details: Sprague-Dawley, in vivo
Rattus norvegicus [26] = test: AUC (0 to infinity) in Sprague-Dawley rat at 2.5 mg/kg, po measured during 1 to 24 hrs by LC-MS method; assay type: ADME, organism-based, Plasma; parameters: dose 2.5 mg/kg, route oral, time infinity; details: in vivo
Rattus norvegicus [27] = test: Half life in Sprague-Dawley rat at 2.5 mg/kg, po measured during 1 to 24 hrs by LC-MS method; assay type: ADME, organism-based; parameters: dose 2.5 mg/kg, route oral; details: in vivo
Rattus norvegicus [28] = test: Half life in Sprague-Dawley rat at 1 mg/kg, iv measured during 1 to 24 hrs by LC-MS method; assay type: ADME, organism-based; parameters: dose 1 mg/kg, route intravenous; details: in vivo
Rattus norvegicus [29] = test: AUC (0 to infinity) in Sprague-Dawley rat at 1 mg/kg, iv measured during 1 to 24 hrs by LC-MS method; assay type: ADME, organism-based, Plasma; parameters: time infinity, dose 1 mg/kg, route intravenous; details: in vivo
[30] = Volume of distribution in Sprague-Dawley rat at 1 mg/kg, iv measured during 1 to 24 hrs by LC-MS method; assay type: ADME, organism-based; parameters: dose 1 mg/kg, route intravenous; details: in vivo
Rattus norvegicus [31] = test: Tmax in Sprague-Dawley rat at 2.5 mg/kg, po measured during 1 to 24 hrs by LC-MS method; assay type: ADME, organism-based; parameters: dose 2.5 mg/kg, route oral; details: in vivo
[32] = Apparent oral clearance in Sprague-Dawley rat at 1 mg/kg, iv measured during 1 to 24 hrs by LC-MS method; assay type: ADME, organism-based; parameters: dose 1 mg/kg, route oral; details: in vivo
[33] = Apparent oral clearance in Sprague-Dawley rat at 2.5 mg/kg, po measured during 1 to 24 hrs by LC-MS method; assay type: ADME, organism-based; parameters: dose 2.5 mg/kg, route oral; details: Sprague-Dawley, in vivo
[34] = Cmax in Sprague-Dawley rat at 1 mg/kg, iv measured during 1 to 24 hrs by LC-MS method; assay type: ADME, organism-based; parameters: dose 1 mg/kg, route intravenous; details: in vivo

Sequence of Prostaglandin G/H synthase 1 (P23219 whole entry): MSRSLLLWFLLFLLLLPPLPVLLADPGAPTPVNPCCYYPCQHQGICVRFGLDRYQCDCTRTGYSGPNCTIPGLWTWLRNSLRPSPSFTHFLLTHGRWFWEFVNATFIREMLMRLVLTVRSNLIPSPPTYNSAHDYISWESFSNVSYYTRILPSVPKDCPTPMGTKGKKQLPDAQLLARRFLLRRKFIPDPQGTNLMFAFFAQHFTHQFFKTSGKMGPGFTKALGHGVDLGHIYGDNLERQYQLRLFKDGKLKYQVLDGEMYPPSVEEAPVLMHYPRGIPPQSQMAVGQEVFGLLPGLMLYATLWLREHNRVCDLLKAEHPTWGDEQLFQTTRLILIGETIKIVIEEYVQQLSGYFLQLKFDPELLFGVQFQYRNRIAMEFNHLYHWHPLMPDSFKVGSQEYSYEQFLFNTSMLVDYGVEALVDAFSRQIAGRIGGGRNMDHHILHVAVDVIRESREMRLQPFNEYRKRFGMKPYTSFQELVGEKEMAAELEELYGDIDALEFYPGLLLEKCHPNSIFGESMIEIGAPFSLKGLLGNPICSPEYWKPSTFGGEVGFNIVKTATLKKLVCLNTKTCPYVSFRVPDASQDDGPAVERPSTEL

## [2H]C([2H])([2H])c1cc(Br)cc2c1OC(C(F)(F)F)C(C(=O)O)=C2 (centres undefined)
Rattus norvegicus [1]
  EC50: 3 mg/kg
Rattus norvegicus [2]
  AUC: 66.436832 µg·h/mL
[3]
  IC50: 0.039 µM
Rattus norvegicus [4]
  AUC: 142.686966 µg·h/mL
Rattus norvegicus [5]
  ED50: 0.42 mg/kg
[6]
  Vd: 0.461 L/kg
[7]
  CL/F: 1.28 mL/min/kg
Rattus norvegicus [8]
  t1/2: 4.186 h
Rattus norvegicus [9]
  EC50: 0.27 mg/kg
Rattus norvegicus [10]
  Vd: 0.53 L/kg
[11]
  bioavailability: 107%
[12]
  Cmax: 39000 ng/mL
Rattus norvegicus [13]
  EC50: 2.19 mg/kg
[14]
  CL/F: 1.2 mL/min/kg

## CCc1cc(OC(F)(F)F)cc2c1OC(C(F)(F)F)C(C(=O)O)=C2 (centres undefined)
[15]
  bioavailability: 78.6%
[16]
  AUC(0-inf): 131 µg·h/mL
[6]
  Vd: 0.301 L/kg
Rattus norvegicus [17]
  Vd: 0.678 L/kg
[7]
  CL/F: 0.633 mL/min/kg
[18]
  CL/F: 0.817 mL/min/kg
Rattus norvegicus [8]
  t1/2: 5.446 h
[19]
  half-life: 9.54 h
[20]
  Tmax: 1.62 h
[12]
  Cmax: 37200 ng/mL
[21]
  AUC(0-inf): 511 µg·h/mL
[22]
  Cmax: 29500 ng/mL
[23]
  IC50: > 100 µM

## [2H]C([2H])([2H])c1cc2c(c(C([2H])([2H])[2H])c1Cl)C=C(C(=O)O)C(C(F)(F)F)O2 (centres undefined)
Rattus norvegicus [1]
  EC50: 5.18 mg/kg
Rattus norvegicus [2]
  AUC: 63.759714 µg·h/mL
Rattus norvegicus [4]
  AUC: 118.331438 µg·h/mL
[6]
  Vd: 0.287 L/kg
[7]
  CL/F: 1.32 mL/min/kg
Rattus norvegicus [8]
  t1/2: 2.525 h
Rattus norvegicus [9]
  EC50: 0.47 mg/kg
Rattus norvegicus [10]
  Vd: 0.26 L/kg
[11]
  bioavailability: 92.8%
[12]
  Cmax: 38800 ng/mL
Rattus norvegicus [13]
  EC50: 2.77 mg/kg
[14]
  CL/F: 1.43 mL/min/kg

## [2H]C([2H])([2H])c1cc2c(c(C([2H])([2H])[2H])c1Br)C=C(C(=O)O)[C@@H](C(F)(F)F)O2
[3]
  IC50: 0.009 µM
[23]
  IC50: > 100 µM

## Cc1ccc(-c2cc(C(F)(F)F)nn2-c2ccc(S(N)(=O)=O)cc2)cc1 [CELECOXIB]
Rattus norvegicus [1]
  EC50: 2.81 mg/kg
Rattus norvegicus [5]
  ED50: 1.57 mg/kg
Rattus norvegicus [9]
  EC50: 0.69 mg/kg
Rattus norvegicus [13]
  EC50: 5 mg/kg

## Cc1cc(Cl)c2c(c1)C=C(C(=O)O)C(C(F)(F)F)O2 (centres undefined)
[23]
  IC50: > 100 µM

## [2H]C([2H])([2H])c1cc2c(c(C([2H])([2H])[2H])c1Cl)C=C(C(=O)O)[C@@H](C(F)(F)F)O2
[23]
  IC50: > 100 µM

## Cc1cc(Cl)cc2c1OC(C(F)(F)F)C(C(=O)O)=C2 (centres undefined)
[24]
  Cmax: 2720 ng/mL
[25]
  bioavailability: 128%
Rattus norvegicus [26]
  AUC: 4.627624 µg·h/mL
Rattus norvegicus [27]
  t1/2: 1.75 h
Rattus norvegicus [28]
  t1/2: 0.59 h
Rattus norvegicus [9]
  EC50: 0.61 mg/kg
Rattus norvegicus [29]
  AUC: 1.440446 µg·h/mL
[30]
  Vd: 0.59 L/kg
Rattus norvegicus [31]
  Tmax: 0.25 h
[32]
  CL/F: 11.8 mL/min/kg
[33]
  CL/F: 9.12 mL/min/kg
[34]
  Cmax: 4130 ng/mL
